# BindingDB's records for patent US11066409 (Shionogi, 2021)
# Target: T1, P2X purinoceptor 7 [R270H] (Homo sapiens, UniProt Q99572, R270H)
# T1 construct: gene P2RX7
# Test: Inhibition Assay
# Method: Evaluation of a human P2X7 receptor inhibitory activity Stably expressing cell line (1321N1 cell transfected with the human P2X7 receptor gene (GenBank accession number NM_002562.5 including T606C and G952A SNP)) was used. The cells were seeded in a 384-well microtiter plate at a concentration of 8000 cells/well and cultured in the medium (10% fetal bovine serum, 25 mM HEPES, 1% penicillin and streptomycin in DMEM) for one day at 37° C. under 5% carbon dioxide atmosphere. After replacing with 20 μL of the HBSS buffer (20 mM HEPES, 55.6 mM D-glucose, 1× HBSS(−), pH7.4-7.5), 15 μL of 17.3 μM Yo-Pro solution in the HBSS buffer was added. The plate was placed in high-throughput cellular screening system FLIPR TETRA (Molecullar Devices, LLC.) and 15 μL of 130 μM BzATP solution in the HBSS buffer was added. Measurement of fluorescence intensity by FLIPR TETRA was started. After eight minutes, 15 μL of DMSO solutions containing different concentrations of the compound of the present invention as prepared by dilution with the HBSS buffer were dispensed to each well through the built-in automatic dispenser, and the measurement of fluorescence intensity was continued for 20 minutes. The maximum fluorescence intensity without the compound of the present invention is calculated as 0% inhibition and the maximum fluorescence intensity when the reference compound was added is calculated as 100% inhibition.
# T1 sequence (Q99572 whole entry R270H, looked up): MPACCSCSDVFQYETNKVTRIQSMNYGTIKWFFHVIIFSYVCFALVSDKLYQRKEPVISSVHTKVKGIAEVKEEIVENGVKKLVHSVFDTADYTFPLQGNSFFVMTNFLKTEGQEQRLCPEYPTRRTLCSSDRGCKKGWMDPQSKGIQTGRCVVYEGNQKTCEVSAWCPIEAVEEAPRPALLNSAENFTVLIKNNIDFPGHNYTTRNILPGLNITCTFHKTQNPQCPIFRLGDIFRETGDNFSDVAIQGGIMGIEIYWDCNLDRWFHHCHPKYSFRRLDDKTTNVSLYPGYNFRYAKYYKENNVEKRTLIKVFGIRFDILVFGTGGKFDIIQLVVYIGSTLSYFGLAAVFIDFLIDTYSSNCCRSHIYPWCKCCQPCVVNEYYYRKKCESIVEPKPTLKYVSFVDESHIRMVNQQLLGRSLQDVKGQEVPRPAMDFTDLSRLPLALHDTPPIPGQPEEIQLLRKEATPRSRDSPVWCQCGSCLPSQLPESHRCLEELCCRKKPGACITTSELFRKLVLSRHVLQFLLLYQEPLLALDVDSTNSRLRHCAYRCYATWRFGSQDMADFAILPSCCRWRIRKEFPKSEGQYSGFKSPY
row,SMILES,IC50 [µM]
1,"COc1cc(Nc2nc(=O)c(F)c3n2C(c2cc(F)cc(F)c2)CC3)c(C)cc1F (stereo not drawn) [US11066409, Compound I-0099]",< 0.01
2,"Cc1cc(F)c(CO)cc1NC1=NC(=O)N(C)C2=NCC(c3cc(F)c(F)c(F)c3)N12 (stereo not drawn) [US11066409, Compound I-0168]",0.023
3,"Cc1ccc(OCCO)cc1NC1=NC(=O)N(C)C2=NCC(c3cc(F)c(F)c(F)c3)N12 (stereo not drawn) [US11066409, Compound I-0171]",0.019
